For three molecules, PFU results are on record in ChEMBL document CHEMBL1269004, “Synthesis of a 6-methyl-7-deaza analogue of adenosine that potently inhibits replication of polio and dengue viruses” (J Med Chem, 2010).

Common to all, as to assay type: functional, HeLa S3
For assay [1], the system named is Enterovirus C.
Assay [2] concerns Enterovirus C. The source holds these as a separate data set.
The subject of assay [3] is Enterovirus C. The source holds these as a separate data set.
Assay [4] deals with Enterovirus C. This is another data set of the same source.
Assay [5] relates to Enterovirus C. This is another data set of the same source.
For assay [6], the system named is Enterovirus C. The source holds these as a separate data set.

With `Cc1ncnc2c1ncn2[C@@H]1O[C@H](CO)[C@@H](O)[C@H]1O`, the PFU came out at 22 in the assay on Enterovirus C [1] and 12 in the assay with Enterovirus C [2].
Consider `Cc1ncnc2c1ccn2[C@@H]1O[C@H](CO)[C@@H](O)[C@H]1O`, for which the figures for the PFU in the assay with Enterovirus C [3] and with Enterovirus C [4] were 19 and 17, respectively.
For the molecule `NC(=O)c1ncn([C@@H]2O[C@H](CO)[C@@H](O)[C@H]2O)n1` [RIBAVIRIN], the results for the PFU with Enterovirus C [5] and in the assay on Enterovirus C [6] were above 250 and 150, respectively.
